From paper PMC11305403, “Design, synthesis, and antiproliferative screening of new quinoline derivatives bearing a cis-vinyl triamide motif as apoptosis activators and EGFR-TK inhibitors” (RSC Advances, 2024) come the findings set out here.

Molecules are shown by their SMILES.

For one series, the system named is MCF-7 cell line. The series is described as follows: MTT cytotoxic / antiproliferative activity against MCF-7 cell line. Format: cell-based. To be noted: for IC50: MTT assay, MCF-7 breast adenocarcinoma cells, 24 h treatment; for fold more potent antiproliferative activity than the reference STU: MCF-7, relative to STU IC50. As for the experimental part:
S4.2.1. Cytotoxic activity evaluation […]
adenocarcinoma (MCF-7) cell line. Cell viability assay was assessed using MTT assay […]
under 5% CO2. After incubation, the cells were treated with different concentrations of the test hybrid 5 and 6a-h and incubated for 24 h, then 20 µl of MTT solution at 5 […]
Dimethyl sulphoxide (DMSO) in […]
volume of 100 µl was added to each well to dissolve the purple formazan that had formed. The color intensity of the formazan product, which represents the growth […]
570 nm absorbance. The experimental conditions were carried out with at least three replicates, and the experiments were repeated at least three times. […]
In general terms: Formazan colour is commonly taken as a measure of viable cells.

Series [1] relates to MCF-7 cells. The series is described as follows: Cell cycle analysis by flow cytometry (PI staining) in MCF-7 cells. Format: cell-based. To be noted: MCF-7, 1.87 μM, 48 h. The text has this:
The cell cycle is related to a series of events responsible for cell division and duplication.[42] The cell cycle presents three distinct phases: G1, S and G2/M phase.[43] Due to the importance of the cell cycle in the process of tumor progression, we evaluated if the cell growth inhibition in MCF-7 occurred due to cell cycle arrest using FACS method. In the present study, flow cytometric measurement was utilized to investigate the effect of quinoline tethered [2-(4-methoxyphenyl)-cis-vinyl] triamide 6f on cellular cycle progression in tested breast cancer cells. In the test, MCF-7 cells were treated with quinoline tethered [2-(4-methoxyphenyl)-cis-vinyl] triamide 6f at a concentration of 1.87 μM, then incubated for 48 h. The cellular cycle distribution was analyzed to identify the definite phase at which quinoline tethered [2-(4-methoxyphenyl)-cis-vinyl] triamide 6f can arrest the cell cycle. […] It is observed that the percentage of cells at G1 phase was increased by 1.2-fold compared to controls (Fig. 3).
S4.2.1. Cytotoxic activity evaluation
To measure the cytotoxic actvity of the prepared derivatives 5 and 6a-h in breast adenocarcinoma (MCF-7) cell line. Cell viability assay was assessed using MTT assay method. Cells at density of 1 x 104 were seeded in a 96-well plate at 37 °C for 24 h under 5% CO2. After incubation, the cells were treated with different concentrations of the test hybrid 5 and 6a-h and incubated for 24 h, then 20 µl of MTT solution at 5 mg/mL was applied and incubated for 4 h at 37 °C. […] The color intensity of the formazan product, which represents the growth condition of the cells, is quantified by using an ELISA plate reader (EXL 800, USA) at 570 nm absorbance. […]
Cell cycle analysis in MCF-7 cells was investigated using fluorescent […] (BioVision EZCellTM Cell Cycle Analysis Kit Catalog #K920) by flow cytometry assay. […] The samples were immediately analyzed using Facs Calibur flow cytometer (Becton and Dickinson, Heidelberg, […]

For series [2], the system named is MCF-7 cells. As to the kind of experiment: Annexin V-FITC/PI apoptosis assay by flow cytometry in MCF-7 cells. Particulars: 48 h. Format: cell-based. How it is done:
Apoptosis play an important role in organogenesis and in crafting complex tissues during embryonic growth, and in the preservation of tissue homeostasis in adult organism.[44] Numerous clinical disorders, including cancer, autoimmune illness and infectious diseases, are characterised by the deregulation of apoptosis.[45] To ensure the ability of quinoline tethered [2-(4-methoxyphenyl)-cis-vinyl] triamide 6f to activate apoptosis, flow cytometric measurement was carried out using Annexin V which binds to phophatidylserine declared on the outer layed of apoptotic cells and appears fluorescent green and PI which stains DNA and penetrates only dead cells. […] Meanwhile, the proportion of late apoptotic cells rose from 0.21% to 16.65% compared to DMOS controls (Fig. 4). […]
S4.2.3. Apoptosis assay for compound 6f
Apoptosis in MCF-7 cells was investigated using fluorescent Annexin V-FITC/ PI detection kit (BioVision Annexin V-FITC Apoptosis Detection Kit, Catalog #: K101) by flow cytometry assay. MCF-7 cells at a density of 2 × 10^5 per well were treated with compound 6f at the IC50 (µM) for 48 h, then the cells were harvested and stained with Annexin V-FITC/ PI dye for 15 min in the dark at 37 °C. The samples were immediately analyzed using FACS Calibur flow cytometer (Becton and Dickinson, […]
S4.2.4. EGFR kinase Assay […]
according to manufacturer’s instructions using # BPS Bioscience EGFR Kinase Assay
On the technique in general: A flow cytometer gives signals particle by particle.

The test system of series [3] is MCF-7 cells. As to the kind of experiment: Mitochondrial membrane potential (MMP) by flow cytometry in MCF-7 cells. The series is classed as cell-based. The text has this:
A major part of apoptosis process is played by mitochondria.[46] Several active proteins such as cytochrome C and factor that induces apoptosis are two of the active proteins found in mitochondria.[47] The release of such proteins after inhibition of mitochondrial membrane potential (MMP) is crucial in the propagation of apoptosis.[48] […] This decrease in MMP was linked to an increase in Annexin V positive cells. […] According to this, quinoline tethered [2-(4-methoxyphenyl)-cis-vinyl] triamide 6f cause MCF-7 cells to become dysfunction in their mitochondria, which in turn trigger apoptotic cellular death. These outcomes were consistent with early findings that EGFR-TK inhibitors promote apoptosis via the mitochondrial route.

A further series concerns the target T1, EGFR tyrosine kinase (Homo sapiens, UniProt P00533).
T1 construct: purchased BPS Bioscience 40321
The series is described as follows: EGFR kinase assay (BPS Bioscience EGFR Kinase Assay Kit). Particulars: read-out: EGFR inhibitory activity IC50. The series is classed as biochemical. The text has this: immediately analyzed using FACS Calibur flow cytometer (Becton and Dickinson,
S4.2.4. EGFR kinase Assay
(1 picture or pasted object on this page, not shown here)

T1 sequence (P00533 25-1210): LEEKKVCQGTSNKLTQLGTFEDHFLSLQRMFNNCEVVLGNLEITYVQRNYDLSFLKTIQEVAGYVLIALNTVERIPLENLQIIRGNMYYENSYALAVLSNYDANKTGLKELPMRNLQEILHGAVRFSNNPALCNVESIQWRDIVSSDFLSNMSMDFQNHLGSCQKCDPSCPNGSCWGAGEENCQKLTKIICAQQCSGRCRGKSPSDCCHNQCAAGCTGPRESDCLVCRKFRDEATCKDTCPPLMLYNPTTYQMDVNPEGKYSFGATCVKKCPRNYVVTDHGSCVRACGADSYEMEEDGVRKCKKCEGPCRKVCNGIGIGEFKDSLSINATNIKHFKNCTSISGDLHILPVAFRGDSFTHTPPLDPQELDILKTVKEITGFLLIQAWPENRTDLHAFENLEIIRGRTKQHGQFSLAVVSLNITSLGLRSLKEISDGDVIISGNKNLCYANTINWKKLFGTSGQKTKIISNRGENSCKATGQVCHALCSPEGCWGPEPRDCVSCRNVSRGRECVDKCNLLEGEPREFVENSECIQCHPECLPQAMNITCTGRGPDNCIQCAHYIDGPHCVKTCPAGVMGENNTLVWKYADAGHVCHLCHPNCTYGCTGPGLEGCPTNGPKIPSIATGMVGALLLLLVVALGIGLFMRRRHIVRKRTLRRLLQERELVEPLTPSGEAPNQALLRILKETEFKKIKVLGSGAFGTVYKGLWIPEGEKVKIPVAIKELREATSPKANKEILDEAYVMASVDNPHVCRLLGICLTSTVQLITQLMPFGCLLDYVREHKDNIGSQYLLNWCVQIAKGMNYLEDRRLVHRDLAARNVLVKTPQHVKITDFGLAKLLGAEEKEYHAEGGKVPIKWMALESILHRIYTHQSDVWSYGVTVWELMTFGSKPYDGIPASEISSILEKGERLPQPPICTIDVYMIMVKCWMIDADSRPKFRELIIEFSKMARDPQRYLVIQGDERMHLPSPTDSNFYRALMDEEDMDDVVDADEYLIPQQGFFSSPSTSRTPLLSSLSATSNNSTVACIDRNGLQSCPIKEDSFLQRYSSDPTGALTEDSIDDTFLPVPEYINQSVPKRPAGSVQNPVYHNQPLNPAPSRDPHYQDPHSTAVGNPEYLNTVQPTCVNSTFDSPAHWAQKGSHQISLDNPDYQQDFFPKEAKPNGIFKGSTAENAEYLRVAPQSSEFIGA

Usually IC50 stands for the concentration that gives 50% inhibition. The melting point is the temperature, or range, at which the solid turns liquid. `O=C(NNC(=O)c1cc(-c2ccc(Br)cc2)nc2ccccc12)/C(=C/c1ccco1)NC(=O)c1ccccc1` [Compound 5, (Z)-N-(3-(2-(2-(4-Bromophenyl)quinoline-4-carbonyl)hydrazinyl)-1-(furan-2-yl)-3-oxoprop-1-en-2-yl)benzamide] had a melting point of 188 to 190 °C. In addition, half-maximal inhibition in the series on MCF-7 cell line (Homo sapiens, MCF7, 24 h) (IC50) was put at 6.6 ± 0.21 µM. The “fold more potent antiproliferative activity than the reference STU” value in the series with MCF-7 cell line was 1.06–7.10 fold.

`O=C(NNC(=O)c1cc(-c2ccc(Br)cc2)nc2ccccc12)/C(=C/c1ccc(F)cc1)NC(=O)c1ccccc1` [Compound 6a, (Z)-N-(3-(2-(2-(4-Bromophenyl)quinoline-4-carbonyl)hydrazinyl)-1-(4-fluorophenyl)-3-oxoprop-1-en-2-yl)benzamide] returned a melting point of 177 to 179 °C. Besides, in the series with MCF-7 cell line (Homo sapiens, MCF7, 24 h), the IC50 worked out at 59.8 ± 1.93 µM.

On to `O=C(NNC(=O)c1cc(-c2ccc(Br)cc2)nc2ccccc12)/C(=C/c1ccc(Cl)cc1)NC(=O)c1ccccc1` [Compound 6b, (Z)-N-(3-(2-(2-(4-Bromophenyl)quinoline-4-carbonyl)hydrazinyl)-1-(4-chlorophenyl)-3-oxoprop-1-en-2-yl)benzamide], for which the melting point is 185 to 187 °C. The molecule also gave a 50% inhibitory concentration (IC50) in the series with MCF-7 cell line (Homo sapiens, MCF7, 24 h) of 8.29 ± 0.27 µM. Also, the “fold more potent antiproliferative activity than the reference STU” value with MCF-7 cell line was 1.06–7.10 fold.

Take `O=C(NNC(=O)c1cc(-c2ccc(Br)cc2)nc2ccccc12)/C(=C/c1ccc(Br)cc1)NC(=O)c1ccccc1` [Compound 6c, (Z)-N-(1-(4-Bromophenyl)-3-(2-(2-(4-bromophenyl)quinoline-4-carbonyl)hydrazinyl)-3-oxoprop-1-en-2-yl)benzamide]: the melting point fell in the range of 191 to 193 °C. This molecule also returned an IC50 in the series with MCF-7 cell line (Homo sapiens, MCF7, 24 h) of 19.2 ± 0.62 µM.

`O=C(NNC(=O)c1cc(-c2ccc(Br)cc2)nc2ccccc12)/C(=C/c1ccc([N+](=O)[O-])cc1)NC(=O)c1ccccc1` [Compound 6d, (Z)-N-(3-(2-(2-(4-Bromophenyl)quinoline-4-carbonyl)hydrazinyl)-1-(4-nitrophenyl)-3-oxoprop-1-en-2-yl)benzamide]: the melting point was in the range of 207 to 209 °C. The 50% inhibitory concentration (IC50) in the series on MCF-7 cell line (Homo sapiens, MCF7, 24 h) was 12.4 ± 0.4 µM. Besides, the “fold more potent antiproliferative activity than the reference STU” value in the series with MCF-7 cell line is on record as 1.06–7.10 fold.

With `Cc1ccc(/C=C(\NC(=O)c2ccccc2)C(=O)NNC(=O)c2cc(-c3ccc(Br)cc3)nc3ccccc23)cc1` [Compound 6e, (Z)-N-(3-(2-(2-(4-Bromophenyl)quinoline-4-carbonyl)hydrazinyl)-3-oxo-1-p-tolylprop-1-en-2-yl)benzamide], the melting point fell in the range of 211 to 213 °C. The molecule further returned an IC50 in the series with MCF-7 cell line (Homo sapiens, MCF7, 24 h) of 1.87 µM. In the series on MCF-7 cell line, the “fold more potent antiproliferative activity than the reference STU” value was 1.06–7.10 fold and the concentration for half-maximal inhibition (IC50) was 3.03 ± 0.1 µM.

`COc1ccc(/C=C(\NC(=O)c2ccccc2)C(=O)NNC(=O)c2cc(-c3ccc(Br)cc3)nc3ccccc23)cc1` [Compound 6f, (Z)-N-(3-(2-(2-(4-Bromophenyl)quinoline-4-carbonyl)hydrazinyl)-1-(4-methoxyphenyl)-3-oxoprop-1-en-2-yl)benzamide] had an IC50 in the series on MCF-7 cell line (Homo sapiens, MCF7, 24 h) of 1.88 µM. In addition, in the series with MCF-7 cell line, the “fold more potent antiproliferative activity than the reference STU” value is listed as 1.06–7.10 fold and the half-inhibitory concentration (IC50) came to 1.87 ± 0.06 µM. Further, the “fold increase of percentage of cells at G1 phase compared to controls” value with MCF-7 cells [1] was 1.2 fold. Also, the “percentage of cells at G2/M phase (%DIP G2/M)” value with MCF-7 cells [1] (control 14.04%) worked out at 7.12%. Also, the “percentage of cells at S phase (%DIP S)” value in the series with MCF-7 cells [1] (control 34.30%) was 29.32%. Also, the “percentage of primary (early) apoptotic cells” value in the series on MCF-7 cells [2] (MCF-7, 1.87 μM (IC50), lower right quadrant, DMSO control 0.66%) is given as 9.52%. Moreover, the “proportion of late apoptotic cells” value with MCF-7 cells [2] (MCF-7, 1.87 μM (IC50), upper right quadrant, DMSO control 0.21%) is recorded as 16.65%. For the same molecule, in the series with MCF-7 cells [2] (MCF-7, 1.87 μM), the “fold increase of early apoptosis compared to controls” value is recorded as ~14.4 fold and the “fold increase of late apoptosis compared to controls” value was ~79.3 fold. Also, the “decrease of MMP of MCF-7 cells compared to controls (percentage change value)” value in the series on MCF-7 cells [3] (MCF-7, 1.87 μM (IC50 dose), vs DMSO controls) is given as 57.93%. In addition, in the series on MCF-7 cells [3] (MCF-7, 1.87 μM, control 58497), the “MMPΨ / MCF-7 (flow cytometry reading)” value is on record as 24610. Besides, the IC50 on EGFR tyrosine kinase came out at 0.19 µM.

`CC(=O)Oc1c(Br)cc(/C=C(\NC(=O)c2ccccc2)C(=O)NNC(=O)c2cc(-c3ccc(Br)cc3)nc3ccccc23)cc1Br` [Compound 6g, (Z)-4-(2-Benzamido-3-(2-(2-(4-bromophenyl)quinoline-4-carbonyl)hydrazinyl)-3-oxoprop-1-enyl)-2,6-dibromophenyl acetate] displayed a melting point of 181 to 183 °C. Besides, the IC50 in the series with MCF-7 cell line (Homo sapiens, MCF7, 24 h) worked out at 30.4 ± 0.98 µM.

As for `COc1cc(/C=C(\NC(=O)c2ccccc2)C(=O)NNC(=O)c2cc(-c3ccc(Br)cc3)nc3ccccc23)cc(OC)c1OC` [Compound 6h, (Z)-N-(3-(2-(2-(4-Bromophenyl)quinoline-4-carbonyl)hydrazinyl)-3-oxo-1-(3,4,5-trimethoxyphenyl)prop-1-en-2-yl)benzamide], the melting point was in the range of 169 to 171 °C. In the series with MCF-7 cell line (Homo sapiens, MCF7, 24 h), this molecule had a half-inhibitory concentration (IC50) of 15.6 ± 0.42 µM.
